Tested on: G-CSF, MCP-1, MIP-1β, TNFα
Test: Phase I clinical study: pharmacodynamic response, plasma immune mediators (MAP)
Assay type: in vivo
Settings: human, s.c., first dose
Protocol: Study Procedures: VTX-2337 was administered weekly via subcutaneous injection on Days 1, 8, and 15 of a 28-day dosing cycle for two cycles. Using a modified Fibonacci dose-escalation scheme, successive cohorts received doses ranging from 0.1 mg/m^2 to 3.9 mg/m^2 of VTX-2337. Plasma samples were collected for pharmacokinetic analysis after the first dose of the first treatment cycle and for pharmacodynamic analyses after the first dose of the first and second treatment cycles.
To evaluate the pharmacodynamic (PD) response to VTX-2337, blood was collected at 0, 4, 8, 24 hours after subcutaneous administration of the first dose of the first cycle of VTX-2337. Plasma levels of immune mediators were quantified using the human multiple analyte panel (MAP), version 1.8 (Rules Based Medicine). […] Levels of mediators in plasma collected from 9 healthy volunteers are shown for comparison to the oncology population. […]

## CCCN(CCC)C(=O)C1=Cc2ccc(-c3ccc(C(=O)N4CCCC4)cc3)cc2N=C(N)C1 [VTX-2337, 2-amino-N,N-dipropyl-8-(4-(pyrrolidine-1-carbonyl)phenyl)-3H-benzo[b]azepine-4-carboxamide]
Cohort 1 (0.1 mg/m^2), 0 Hr
  G-CSF plasma level: 9.7 ± 1.9 pg/mL
  MCP-1 plasma level: 247 ± 62.7 pg/mL
  MIP-1β plasma level: 201 ± 73.8 pg/mL
  TNFα plasma level: 11.4 ± 4.4 pg/mL
Cohort 1 (0.1 mg/m^2), 4 Hr
  G-CSF plasma level: 8.6 ± 1.6 pg/mL
  MCP-1 plasma level: 223 ± 58.8 pg/mL
  MIP-1β plasma level: 196 ± 71.9 pg/mL
  TNFα plasma level: 10.5 ± 2.6 pg/mL
Cohort 1 (0.1 mg/m^2), 8 Hr
  G-CSF plasma level: 11.9 ± 4.4 pg/mL
  MCP-1 plasma level: 280 ± 97.0 pg/mL
  MIP-1β plasma level: 204 ± 74.0 pg/mL
  TNFα plasma level: 10.3 ± 4.0 pg/mL
Cohort 1 (0.1 mg/m^2), 24 Hr
  G-CSF plasma level: 9.2 ± 2.5 pg/mL
  MCP-1 plasma level: 250 ± 85.0 pg/mL
  MIP-1β plasma level: 207 ± 73.8 pg/mL
  TNFα plasma level: 10.2 ± 3.6 pg/mL
Cohort 2 (0.2 mg/m^2), 0 Hr
  G-CSF plasma level: 7.8 ± 3.2 pg/mL
  MCP-1 plasma level: 245 ± 167 pg/mL
  MIP-1β plasma level: 230 ± 84.0 pg/mL
  TNFα plasma level: 9.7 ± 5.7 pg/mL
Cohort 2 (0.2 mg/m^2), 4 Hr
  G-CSF plasma level: 11.5 ± 7.8 pg/mL
  MCP-1 plasma level: 235 ± 84.6 pg/mL
  MIP-1β plasma level: 239 ± 74.0 pg/mL
  TNFα plasma level: 10.8 ± 5.0 pg/mL
Cohort 2 (0.2 mg/m^2), 8 Hr
  G-CSF plasma level: 19.0 ± 16.5 pg/mL
  MCP-1 plasma level: 298 ± 100 pg/mL
  MIP-1β plasma level: 247 ± 84.7 pg/mL
  TNFα plasma level: 10.5 ± 6.0 pg/mL
Cohort 2 (0.2 mg/m^2), 24 Hr
  G-CSF plasma level: 15.4 ± 9.0 pg/mL
  MCP-1 plasma level: 301 ± 159 pg/mL
  MIP-1β plasma level: 280 ± 115 pg/mL
  TNFα plasma level: 12.4 ± 6.1 pg/mL
Cohort 3 (0.4 mg/m^2), 0 Hr
  G-CSF plasma level: 12.7 ± 6.0 pg/mL
  MCP-1 plasma level: 129 ± 30.0 pg/mL
  MIP-1β plasma level: 172 ± 59.0 pg/mL
  TNFα plasma level: 9.0 ± 4.9 pg/mL
Cohort 3 (0.4 mg/m^2), 4 Hr
  G-CSF plasma level: 9.5 ± 0.9 pg/mL
  MCP-1 plasma level: 137 ± 30.7 pg/mL
  MIP-1β plasma level: 215 ± 65.6 pg/mL
  TNFα plasma level: 10.8 ± 3.3 pg/mL
Cohort 3 (0.4 mg/m^2), 8 Hr
  G-CSF plasma level: 63.8 ± 60.1 pg/mL
  MCP-1 plasma level: 251 ± 87.9 pg/mL
  MIP-1β plasma level: 213 ± 88.8 pg/mL
  TNFα plasma level: 9.6 ± 3.1 pg/mL
Cohort 3 (0.4 mg/m^2), 24 Hr
  G-CSF plasma level: 15.8 ± 3.5 pg/mL
  MCP-1 plasma level: 99.5 ± 6.9 pg/mL
  MIP-1β plasma level: 173 ± 67.4 pg/mL
  TNFα plasma level: 10.0 ± 2.9 pg/mL
Cohort 4 (0.8 mg/m^2), 0 Hr
  G-CSF plasma level: 13.2 ± 8.9 pg/mL
  MCP-1 plasma level: 260 ± 150 pg/mL
  MIP-1β plasma level: 165 ± 63.9 pg/mL
  TNFα plasma level: 16.7 ± 12.6 pg/mL
Cohort 4 (0.8 mg/m^2), 4 Hr
  G-CSF plasma level: 49.8 ± 80.3 pg/mL
  MCP-1 plasma level: 1037 ± 1920 pg/mL
  MIP-1β plasma level: 450 ± 641 pg/mL
  TNFα plasma level: 22.0 ± 14.6 pg/mL
Cohort 4 (0.8 mg/m^2), 8 Hr
  G-CSF plasma level: 137 ± 124 pg/mL
  MCP-1 plasma level: 673 ± 386 pg/mL
  MIP-1β plasma level: 287 ± 177 pg/mL
  TNFα plasma level: 19.0 ± 10.6 pg/mL
Cohort 4 (0.8 mg/m^2), 24 Hr
  G-CSF plasma level: 35.7 ± 14.7 pg/mL
  MCP-1 plasma level: 267 ± 104 pg/mL
  MIP-1β plasma level: 183 ± 55.9 pg/mL
  TNFα plasma level: 17.5 ± 8.7 pg/mL

— patent US20120219615A1, “Therapeutic Use of a TLR Agonist and Combination Therapy” (The Trustees of the University of Pennsylvania, priority 2010, published 2012)
